Data reported in patent publication US11117869B2, “Compounds, compositions and methods for treatment of myopia” (Aerie Pharmaceuticals, Inc., priority 2019, dated 2021).

Columns and labels:
[1] = Topical eye drop composition (Table 3): intraocular pressure; assay type: in vivo
[2] = tested on: myopia; assay: Topical eye drop composition (Table 3): myopia progression or onset; settings: drop 2 times per day, human subject
[3] = Topical eye drop composition (Table 3): allergic symptoms, dry eye, hyperemia, irritation

Compound: CN1C2CCC1CC(OC(=O)C(CO)c1cccc(Cl)c1)C2 (centres unmarked) [Compound E21]
- intraocular pressure [1]: substantially decreases

Compound: CN1C2CCC1CC(NC(=O)C(CO)c1ccccc1)C2 (centres unmarked) [Compound E23]
- rate of myopia progression [2]: substantially decreases

Compound: CN1C2CCC1CC(NC(=O)[C@H](CN)c1ccc(CO)cc1)C2 (stereo partly drawn) [Compound E20S, (S)-3-amino-2-(4-(hydroxymethyl)phenyl)-N-((1R,3-endo,5S)-8-methyl-8-azabicyclo[3.2.]octan-3-yl)propanamide ditosylate]
- intraocular pressure [1]: substantially decreases
- allergic symptoms ([3]; in vivo): substantially decreases

Compound: CN1C2CCC1CC(OC(=O)C(C)(CO)c1ccccc1)C2 (centres unmarked) [Compound E22R]
- hyperemia, redness and ocular irritation ([3]; drop as needed): substantially decreases
